Patent US11426441B2, “Composition comprising protein phosphatase 1 inhibitory peptide for treating vascular diseases” (BethphaGen Inc., priority 2016, dated 2022)
No end group written: not given here.

Legend:
eNOS and Akt = eNOS and Akt phosphorylation in PAECs (western blotting); assay type: cell-based
Protocol: FIGS. 16a, 16b and 16c. (16a-16b) PAECs were treated with 3 μM ψPLB-SE for 1 hour, and protein expression was quantitatively analyzed through western blotting using antibodies against Phospho-eNOS (ser1177), total eNOS, phospho-Akt (Ser473, Thr308), total Akt, and GAPDH. (16c) The pulmonary tissue lysate was subjected to immunoprecipitation using PP1 antibody to investigate the interactions of PP1 with eNOS and Akt depending on the presence or absence of the treatment with ψPLB-SE using respective antibodies therefor.
FIGS. 17a, 17b and 17c. (17a) PAECs were treated with 50 μM LY294002, a PI3K inhibitor, for 24 hours, and then treated with 3 μM ψPLB-SE for 1 hour. Protein expression was quantitatively analyzed through western blotting using antibodies against Phospho-eNOS (ser1177), total eNOS, phospho-Akt (Ser473, Thr308), total Akt, and GAPDH. (17b) PAECs were treated with 10 μM inhibitor IV, an Akt inhibitor, for 2 hours, and then treated with 3 μM ψPLB-SE for 1 hour. Protein expression was quantitatively analyzed through western blotting using antibodies against total eNOS and GAPDH. (17c) PAECs were treated with 100 nM OA, a PP1 inhibitor, for 24 hours, and then treated with 3 μM ψPLB-SE for 1 hour. Protein expression was quantitatively analyzed through western blotting using antibodies against Phospho-eNOS (ser1177), total eNOS, phospho-Akt (Ser473, Thr308), total Akt, and GAPDH.
ψPLB-SE (RAE16TIEMPQ; SEQ ID NO: 2) was derived from the PLB protein sequence surrounding the Ser16 phosphorylation site. To facilitate uptake into cells, the peptide was conjugated to the cell penetrating peptide dNP2 ([…]; SEQ ID NO: 21) or TAT (YGRKKRRQRRR; SEQ ID NO: 22). The peptides used in the present invention were PLB-SE (RAETIEMPQ; SEQ ID NO: 2) and control peptide (RASTIEMPQ; SEQ ID NO: 23). PLB-SE and cell penetrating peptide were connected by a linker peptide (GGG; SEQ ID NO: 24) The peptides (purity of 95% or higher, AnyGen, Gwangju, Korea) was resuspended in double-distilled water or physiological saline at a stock concentration of 3 mM (cells), 2.5 mg/ml (rats), or 500 μg/ml (mice). The rats were treated with 1 mg/kg peptides and mice were treated with 2 mg/kg peptides. The rat aortic smooth muscle cells (RASMCs), human coronary smooth muscle cells (HCSMCs), pulmonary arterial endothelial cells (PAECs), and pulmonary arterial smooth muscle cells (PASMCs) were treated with the peptides at a final concentration of 3 μM for 1 hour. The PI3K inhibitor LY294002 (Millipore, USA), the Akt inhibitor Inhibitor IV (Calbiochem, USA), and the PP1 inhibitor okadaic acid (Sigma Aldrich, USA), used in the experiments using pulmonary arterial endothelial cells (PAECs), were purchased. For the monocrotaline aqueous solution, the monocrotaline powder (Sigma Aldrich, USA) was dissolved in a small amount of a 1 M hydrochloric acid solution (HCL), diluted with sterilized distilled water, and adjusted to pH 7.35 by addition of sodium hydroxide (NaOH). The animals were bred and observed in the same conditions as in the control group during the experiment periods. In addition, the calcium ionophore A23187 and the calpain I and II inhibitors MDL28170 and […] were purchased from Sigma-Aldrich (St. Louis, Mo., USA).
Vascular smooth muscle cells (VSMCs) were homogenized in a minimal volume of 50 mM Tris-HCl, pH 7.4, supplemented with a broad-spectrum protease inhibitor cocktail (Calbiochem). The proteins were separated by SDS-PAGE and then transferred to polyvinylidene fluoride membranes (Schleicher & Schuell). After blocking with 5% (w/v) non-fat milk for 1 hour and washing with TBST, the membranes were incubated with antibodies against SERCA2a, SERCA2b (21st century biochemical), PCNA (abcam), GAPDH (Sigma-Aldrich), phospho-eNOS, eNOS, phospho-eIF2α, eIF2α (cell signaling), Vimentin, α-SMA, BMPR2 (Santa cruz), phospho-Akt, Akt (cell signaling), phospho-phospholamban (Merck), and Phospholamban (cell signaling). […]

SERCA2a = conditions: in vitro and ex vivo; Oh J G et al. (2013); cited from earlier work

Sequence: RAETIEMPQ (not fully specified) [ψPLB-SE, 9-mer PP1 decoy peptide mimicking phosphorylated PLB; conjugated via GGG linker to cell penetrating peptide dNP2 or TAT]
- phosphorylation of Akt and eNOS (eNOS and Akt; 100 nM okadaic acid followed by ψPLB-SE): further increased
- phosphorylation of Akt serine 473 and threonine 308 (eNOS and Akt; 3 μM for 1 hour): increased
- phosphorylation of eNOS serine 1177 (eNOS and Akt; 3 μM for 1 hour): increased
- phosphorylation of eNOS threonine 495 (eNOS and Akt; 3 μM for 1 hour): reduced
- eNOS phosphorylation (eNOS and Akt; Inhibitor IV 10 μM then ψPLB-SE): did not increase
- phosphorylation of eNOS and Akt (eNOS and Akt; LY294002 50 μM followed by ψPLB-SE): increased
- SERCA2a activity in the heart after ischemia/reperfusion (SERCA2a): restored
